Experimental data reported in patent US20160251332A1, “Herbicidal Compounds” (SYNGENTA PARTICIPATIONS AG, priority 2013, published 2016).

What was measured:
Assay type in all cases: in vivo
Amaranthus retroflexus [1] = experiment: Pre-emergence herbicidal activity, AMARE; details: Application pre-emergence, 1000 g/Ha, evaluated after 13 days, scale 0-5
Experimental: (§1) Seeds of a variety of test species were sown in standard soil in pots. After cultivation for one day (pre-emergence) under controlled conditions in a glasshouse (at 24/16° C., day/night; 14 hours light; 65% humidity), the plants were sprayed with an aqueous spray solution derived from the formulation of the technical active ingredient in acetone/water (50:50) solution containing 0.5% Tween 20 (polyoxyethelyene sorbitan monolaurate, CAS RN 9005-64-5). The test plants were then grown in a glasshouse under controlled conditions (at 24/16° C., day/night; 14 hours light; 65% humidity) and watered twice daily. After 13 days, the test was evaluated (5=total damage to plant; 0=no damage to plant).

Echinochloa crus-galli [2] = experiment: Pre-emergence herbicidal activity, ECHCG; details: Application pre-emergence, 1000 g/Ha, evaluated after 13 days, scale 0-5
Experimental: as §1

Abutilon theophrasti [3] = experiment: Pre-emergence herbicidal activity, ABUTH; details: Application pre-emergence, 1000 g/Ha, evaluated after 13 days, scale 0-5
Experimental: as §1

Setaria faberi [4] = experiment: Pre-emergence herbicidal activity, SETFA; details: Application pre-emergence, 1000 g/Ha, evaluated after 13 days, scale 0-5
Experimental: as §1

Alopecurus myosuroides [5] = experiment: Pre-emergence herbicidal activity, ALOMY; details: Application pre-emergence, 1000 g/Ha, evaluated after 13 days, scale 0-5
Experimental: as §1

Zea mays [6] = experiment: Pre-emergence herbicidal activity, ZEAMX; details: Application pre-emergence, 1000 g/Ha, evaluated after 13 days, scale 0-5
Experimental: as §1

Amaranthus retroflexus [7] = experiment: Post-emergence herbicidal activity, AMARE; details: Application post-emergence, 1000 g/Ha, evaluated after 13 days, scale 0-5
Experimental: (§2) Seeds of a variety of test species were sown in standard soil in pots. After 8 days cultivation (post-emergence) under controlled conditions in a glasshouse (at 24/16° C., day/night; 14 hours light; 65% humidity), the plants were sprayed with an aqueous spray solution derived from the formulation of the technical active ingredient in acetone/water (50:50) solution containing 0.5% Tween 20 (polyoxyethelyene sorbitan monolaurate, CAS RN 9005-64-5). The test plants were then grown in a glasshouse under controlled conditions (at 24/16° C., day/night; 14 hours light; 65% humidity) and watered twice daily. After 13 days, the test was evaluated (5=total damage to plant; 0=no damage to plant).

Abutilon theophrasti [8] = experiment: Post-emergence herbicidal activity, ABUTH; details: Application post-emergence, 1000 g/Ha, evaluated after 13 days, scale 0-5
Experimental: as §2

Setaria faberi [9] = experiment: Post-emergence herbicidal activity, SETFA; details: Application post-emergence, 1000 g/Ha, evaluated after 13 days, scale 0-5
Experimental: as §2

Echinochloa crus-galli [10] = experiment: Post-emergence herbicidal activity, ECHCG; details: Application post-emergence, 1000 g/Ha, evaluated after 13 days, scale 0-5
Experimental: as §2

Zea mays [11] = experiment: Post-emergence herbicidal activity, ZEAMX; details: Application post-emergence, 1000 g/Ha, evaluated after 13 days, scale 0-5
Experimental: as §2

Alopecurus myosuroides [12] = experiment: Post-emergence herbicidal activity, ALOMY; details: Application post-emergence, 1000 g/Ha, evaluated after 13 days, scale 0-5
Experimental: as §2

| Structure (SMILES) | AMARE damage score (Amaranthus retroflexus [1]) | ECHCG damage score (Echinochloa crus-galli [2]) | ABUTH damage score (Abutilon theophrasti [3]) | SETFA damage score (Setaria faberi [4]) | ALOMY damage score (Alopecurus myosuroides [5]) | ZEAMX damage score (Zea mays [6]) | AMARE damage score (Amaranthus retroflexus [7]) | ABUTH damage score (Abutilon theophrasti [8]) | SETFA damage score (Setaria faberi [9]) | ECHCG damage score (Echinochloa crus-galli [10]) | ZEAMX damage score (Zea mays [11]) | ALOMY damage score (Alopecurus myosuroides [12]) |
| --- | --- | --- | --- | --- | --- | --- | --- | --- | --- | --- | --- | --- |
| CN1CC(O)N(c2cc(C(F)(F)F)ccn2)C1=O (centres unmarked) [Compound A1, 4-hydroxy-1-methyl-3-[4-(trifluoromethyl)-2-pyridyl]imidazolidin-2-one] | 5 | 5 | 5 | 4 | 4 | 3 | 5 | 5 | 5 | 5 | 5 | 5 |
| CN1CC(O)N(c2cc(C(F)(F)F)c(-c3ccc(F)cc3)cn2)C1=O (centres unmarked) [Compound A2] | 5 | 5 | 4 | 5 | 4 | 5 | 5 | 5 | 5 | 5 | 4 | 5 |
| CN1CC(O)N(c2cc(C(F)(F)F)c(-c3ccccc3)cn2)C1=O (centres unmarked) [Compound A3] | 5 | 5 | 5 | 5 | 4 | 4 | 5 | 5 | 5 | 5 | 2 | 5 |
| CN1CC(O)N(c2cc(C(F)(F)F)c(-c3ccsc3)cn2)C1=O (centres unmarked) [Compound A4, 4-hydroxy-1-methyl-3-[5-(3-thienyl)-4-(trifluoromethyl)-2-pyridyl]imidazolidin-2-one] | 5 | 4 | 2 | 3 | 3 | 2 | 5 | 5 | 5 | 5 | 0 | 4 |
| CN1CC(O)N(c2cc(C(F)(F)F)c(I)cn2)C1=O (centres unmarked) [Compound A5, 4-hydroxy-3-[5-iodo-4-(trifluoromethyl)-2-pyridyl]-1-methyl-imidazolidin-2-one] | 5 | 5 | 5 | 5 | 4 | 4 | 5 | 5 | 5 | 5 | 5 | 5 |
| Cc1ccccc1-c1cnc(N2C(=O)N(C)CC2O)cc1C(F)(F)F (centres unmarked) [Compound A7] | 3 | 1 | 2 | 1 | 1 | 1 | 5 | 5 | 5 | 5 | 3 | 4 |
| CN1CC(O)N(c2cc(C(F)(F)F)c(-c3cccc(NS(C)(=O)=O)c3)cn2)C1=O (centres unmarked) [Compound A8] | 2 | 1 | 2 | 3 | 1 | 2 | 5 | 4 | 1 | 1 | 1 | 1 |
| CN1CC(O)N(c2cc(C(F)(F)F)c(-c3cccc(S(=O)(=O)N(C)C)c3)cn2)C1=O (centres unmarked) [Compound A10] | 5 | 5 | 5 | 4 | 4 | 3 | 5 | 5 | 5 | 5 | 4 | 5 |
| CN1CC(O)N(c2cc(C(F)(F)F)c(-c3cccc([S+](C)[O-])c3)cn2)C1=O (centres unmarked) [Compound A11] | 2 | 1 | 2 | 1 | 1 | 0 | 5 | 5 | 3 | 3 | 2 | 2 |
| CN(C)C(=O)c1cccc(-c2cnc(N3C(=O)N(C)CC3O)cc2C(F)(F)F)c1 (centres unmarked) [Compound A12] | 1 | 1 | 3 | 1 | 0 | 0 | 5 | 5 | 5 | 2 | 2 | 2 |
| COCc1cccc(-c2cnc(N3C(=O)N(C)CC3O)cc2C(F)(F)F)c1 (centres unmarked) [Compound A13] | 3 | 2 | 2 | 2 | 2 | 1 | 5 | 5 | 4 | 4 | 2 | 3 |
| CN1CC(O)N(c2cc(C(F)(F)F)c(-c3ccc(C#N)s3)cn2)C1=O (centres unmarked) [Compound A14] | 5 | 3 | 3 | 2 | 2 | 2 | 5 | 5 | 5 | 5 | 3 | 4 |
| COc1ccc(-c2cnc(N3C(=O)N(C)CC3O)cc2C(F)(F)F)c(OC)c1 (centres unmarked) [Compound A15] | 2 | 1 | 3 | 2 | 1 | 0 | 5 | 5 | 3 | 4 | 1 | 3 |
| CN1CC(O)N(c2cc(C(F)(F)F)c(-c3ccc(C#N)cc3)cn2)C1=O (centres unmarked) [Compound A16] | 5 | 3 | 3 | 4 | 2 | 3 | 5 | 5 | 5 | 5 | 5 | 5 |
| CN1CC(O)N(c2cc(C(F)(F)F)c(-c3cccc(C#N)c3)cn2)C1=O (centres unmarked) [Compound A17] | 5 | 5 | 5 | 4 | 4 | 2 | 5 | 5 | 5 | 5 | – | 5 |
| COC(F)(F)c1ccnc(N2C(=O)N(C)CC2O)c1 (centres unmarked) [Compound A50] | 5 | 1 | 2 | 2 | – | 1 | 5 | 5 | 5 | 5 | 1 | – |
| COCc1cnc(N2C(=O)N(C)CC2O)cc1C(F)(F)F (centres unmarked) [Compound A51] | 5 | 5 | 5 | 5 | – | 3 | 5 | 5 | 5 | 5 | 3 | – |
| COCCOCc1cnc(N2C(=O)N(C)CC2O)cc1C(F)(F)F (centres unmarked) [Compound A52] | 5 | 5 | 5 | 5 | – | 4 | 5 | 5 | 5 | 5 | 5 | – |
